PubChem BioAssay AID248 (DTP/NCI, 2004)
Where “and” joins values, the source holds several entries; their conditions need not be identical. Equal values may be shown once. Toxic doses and inconclusive results are not listed. Cut-off read from the data, not from the text of the source: active = T/C of 150% or more; inactive = T/C below 125%.

System: L1210 leukemia ip in BDF1 mice, survival T/C
Assay: NCI In Vivo Anticancer Drug Screen. Data for tumor model L1210 Leukemia (intraperitoneal) in B6D2F1 (BDF1) mice
Conditions: endpoint: mean survival time, higher = longer survival
In short: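 Mice bearing the transplanted tumor received compound or vehicle. Survival of the treated group was divided by that of the vehicle-treated control group to give the ratio.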

[1] = dose: 100.0 mg/kg/injection, schedule: Q01DX009 (ip), vehicle: saline with Tween-80
[2] = dose: 100.0 mg/kg/injection, schedule: Q04DX003 (ip), vehicle: saline with Tween-80
[3] = dose: 200.0 mg/kg/injection, schedule: Q01DX009 (ip), vehicle: saline with Tween-80
[4] = dose: 200.0 mg/kg/injection, schedule: Q04DX003 (ip), vehicle: saline with Tween-80
[5] = dose: 400.0 mg/kg/injection, schedule: Q01DX009 (ip), vehicle: saline with Tween-80
[6] = dose: 400.0 mg/kg/injection, schedule: Q04DX003 (ip), vehicle: saline with Tween-80
[7] = dose: 12.5 mg/kg/injection, schedule: Q01DX009 (ip), vehicle: Klucel (hydroxypropylcellulose) (HPC)
[8] = dose: 100.0 mg/kg/injection, schedule: Q01DX009 (ip), vehicle: saline
[9] = dose: 200.0 mg/kg/injection, schedule: Q01DX009 (ip), vehicle: saline
[10] = dose: 400.0 mg/kg/injection, schedule: Q01DX009 (ip), vehicle: saline

Measured: T/C

Cc1cc(-n2cnc3c(Cl)ncnc32)ccc1[N+](=O)[O-]
inactive: dose: 50.0 mg/kg/injection, schedule: Q01DX001 (ip), vehicle: carboxymethylcellulose (CMC) 110 % of control | dose: 100.0 mg/kg/injection, schedule: Q01DX001 (ip), vehicle: carboxymethylcellulose (CMC) 101 % of control | dose: 200.0 mg/kg/injection, schedule: Q01DX001 (ip), vehicle: carboxymethylcellulose (CMC) 98 % of control | dose: 400.0 mg/kg/injection, schedule: Q01DX001 (ip), vehicle: carboxymethylcellulose (CMC) 112 % of control

CC(C)(C)C1CCC(C(=O)O)CC1 (stereo unspecified)
inactive: dose: 50.0 mg/kg/injection, schedule: Q01DX009 (ip), vehicle: gum acacia 102 % of control | dose: 100.0 mg/kg/injection, schedule: Q01DX009 (ip), vehicle: gum acacia 103 % of control | [1] 95 % of control and 97 % of control | dose: 100.0 mg/kg/injection, schedule: Q04DX002 (ip), vehicle: gum acacia 100 % of control | dose: 100.0 mg/kg/injection, schedule: Q04DX003 (ip), vehicle: gum acacia 106 % of control | [2] 102 % of control and 89 % of control | dose: 200.0 mg/kg/injection, schedule: Q01DX009 (ip), vehicle: gum acacia 105 % of control | [3] 94 % of control and 97 % of control | dose: 200.0 mg/kg/injection, schedule: Q04DX002 (ip), vehicle: gum acacia 110 % of control | dose: 200.0 mg/kg/injection, schedule: Q04DX003 (ip), vehicle: gum acacia 106 % of control | [4] 100 % of control and 94 % of control | [5] 97 % of control | dose: 400.0 mg/kg/injection, schedule: Q04DX002 (ip), vehicle: gum acacia 110 % of control | [6] 89 % of control

CC1=CC(=O)c2ccccc2C1=O
inactive: dose: 10.0 mg/kg/injection, schedule: Q01DX015 (ip), vehicle: carboxymethylcellulose (CMC) 90 % of control | dose: 15.0 mg/kg/injection, schedule: Q01DX015 (ip), vehicle: carboxymethylcellulose (CMC) 90 % of control | dose: 20.0 mg/kg/injection, schedule: Q01DX015 (ip), vehicle: carboxymethylcellulose (CMC) 90 % of control | dose: 43.0 mg/kg/injection, schedule: Q01DX001 (ip), vehicle: carboxymethylcellulose (CMC) 97 % of control | dose: 64.0 mg/kg/injection, schedule: Q01DX001 (ip), vehicle: carboxymethylcellulose (CMC) 102 % of control | dose: 85.0 mg/kg/injection, schedule: Q01DX001 (ip), vehicle: carboxymethylcellulose (CMC) 108 % of control

Cc1cc(N(CCOS(C)(=O)=O)CCOS(C)(=O)=O)ccc1C=Nc1ccc(-c2nc(Cc3ccccc3)sc2C)cc1
inactive: [7] 115 % of control | dose: 66.0 mg/kg/injection, schedule: Q04DX003 (ip), vehicle: Klucel (hydroxypropylcellulose) (HPC) 115 % of control

CCOC(=O)C(NC=O)C(=O)OCC
inactive: dose: 25.0 mg/kg/injection, schedule: Q01DX009 (ip), vehicle: saline 101 % of control | dose: 50.0 mg/kg/injection, schedule: Q01DX009 (ip), vehicle: saline 101 % of control | [8] 101 % of control | [9] 103 % of control | [10] 98 % of control

CNC(=O)Oc1cccc(CN(C)C)c1
inactive: dose: 5.0 mg/kg/injection, schedule: Q01DX001 (ip), vehicle: saline 98 % of control | dose: 10.0 mg/kg/injection, schedule: Q01DX001 (ip), vehicle: saline 96 % of control | dose: 20.0 mg/kg/injection, schedule: Q01DX001 (ip), vehicle: saline 96 % of control

Cc1ccc(C)c(S(N)(=O)=O)c1
inactive: dose: 100.0 mg/kg/injection, schedule: Q04DX002 (ip), vehicle: Klucel (hydroxypropylcellulose) (HPC) 106 % of control | dose: 200.0 mg/kg/injection, schedule: Q04DX002 (ip), vehicle: Klucel (hydroxypropylcellulose) (HPC) 100 % of control | dose: 400.0 mg/kg/injection, schedule: Q04DX002 (ip), vehicle: Klucel (hydroxypropylcellulose) (HPC) 103 % of control

CC(=O)c1ccc(NC(=O)c2ccc(C(=O)Nc3ccc(C(C)=O)cc3)cc2)cc1
inactive: dose: 100.0 mg/kg/injection, schedule: Q01DX001 (ip), vehicle: saline 100 % of control | dose: 200.0 mg/kg/injection, schedule: Q01DX001 (ip), vehicle: saline 96 % of control | dose: 400.0 mg/kg/injection, schedule: Q01DX001 (ip), vehicle: saline 102 % of control

CC(C)=CCN(CC=C(C)C)CCC(CC=C(C)C)(C(N)=O)c1cccc2ccccc12 (stereo unspecified)
inactive: dose: 6.25 mg/kg/injection, schedule: Q01DX009 (ip), vehicle: Klucel (hydroxypropylcellulose) (HPC) 89 % of control | [7] 101 % of control | dose: 25.0 mg/kg/injection, schedule: Q01DX009 (ip), vehicle: Klucel (hydroxypropylcellulose) (HPC) 89 % of control

c1ccc2c(c1)CCN(CCCCN1CCc3ccccc3C1)C2
inactive: dose: 25.0 mg/kg/injection, schedule: Q04DX003 (ip), vehicle: saline 100 % of control | dose: 50.0 mg/kg/injection, schedule: Q04DX003 (ip), vehicle: saline 102 % of control | dose: 100.0 mg/kg/injection, schedule: Q04DX003 (ip), vehicle: saline 96 % of control and 97 % of control

O=C(O)c1ccccc1C(c1ccccc1)c1ccccc1
inactive: [2] 98 % of control | [4] 93 % of control | [6] 98 % of control

C[n+]1c(-c2ccccc2)c2ccccc2c2ccccc21
inactive: dose: 0.78 mg/kg/injection, schedule: Q01DX009 (ip), vehicle: water 91 % of control | dose: 1.56 mg/kg/injection, schedule: Q01DX009 (ip), vehicle: water 96 % of control | dose: 1.56 mg/kg/injection, schedule: Q04DX003 (ip), vehicle: water 103 % of control | dose: 3.12 mg/kg/injection, schedule: Q01DX009 (ip), vehicle: water 93 % of control | dose: 3.12 mg/kg/injection, schedule: Q04DX003 (ip), vehicle: water 97 % of control | dose: 6.25 mg/kg/injection, schedule: Q04DX003 (ip), vehicle: water 108 % of control

CCOC(=O)C(=O)CC1CCCCC1
inactive: dose: 50.0 mg/kg/injection, schedule: Q01DX009 (ip), vehicle: saline with Tween-80 92 % of control | [1] 100 % of control | [3] 100 % of control

O=c1cc(O)ccn1CC(O)c1ccc(Cl)s1 (stereo unspecified)
inactive: [1] 89 % of control | [2] 100 % of control | [3] 88 % of control | [4] 98 % of control | [5] 94 % of control | [6] 99 % of control

COc1ccc(NC(=O)NO)cc1
inactive: dose: 50.0 mg/kg/injection, schedule: Q04DX002 (ip), vehicle: saline with Tween-80 108 % of control | dose: 100.0 mg/kg/injection, schedule: Q04DX002 (ip), vehicle: saline with Tween-80 101 % of control | dose: 200.0 mg/kg/injection, schedule: Q04DX002 (ip), vehicle: saline with Tween-80 108 % of control

CCOc1ccn(C2CCOC2=O)c(=O)n1 (stereo unspecified)
inactive: [8] 100 % of control | dose: 100.0 mg/kg/injection, schedule: Q04DX003 (ip), vehicle: alcohol 104 % of control | [9] 97 % of control | dose: 200.0 mg/kg/injection, schedule: Q04DX003 (ip), vehicle: alcohol 102 % of control | [10] 100 % of control | dose: 400.0 mg/kg/injection, schedule: Q04DX003 (ip), vehicle: alcohol 102 % of control

c1ccc(-c2cc3ccncc3c3ccccc23)cc1
inactive: dose: 100.0 mg/kg/injection, schedule: Q04DX003 (ip), vehicle: water 102 % of control | dose: 200.0 mg/kg/injection, schedule: Q04DX003 (ip), vehicle: water 96 % of control | dose: 400.0 mg/kg/injection, schedule: Q04DX003 (ip), vehicle: water 96 % of control
